Data from US9113629B2, “4-amino-6-(4-substituted-phenyl)-picolinates and 6-amino-2-(4-substituted-phenyl)-pyrimidine-4-carboxylates and their use as herbicides” (DOW AGROSCIENCES LLC, priority 2013, dated 2015).
Like-named read-outs stand apart in the source and are kept apart here.

Tests used:
[1] = tested on: test plant species in Direct Seeded Rice; experiment: Postemergence herbicidal activity in direct seeded rice (Table 13); assay type: in vivo; conditions: for GR50 BRAPP / GR80 BRAPP / GR50 CYPSS / GR80 CYPSS / GR50 ECHSS / GR80 ECHSS / GR50 LEFSS / GR80 LEFSS / GR20 ORYSS / GR50 SCPJU / GR80 SCPJU / GR50 SEBEX / GR80 SEBEX: probit analysis; for GR20 ORYSS: ORYSS: Oryza sativa (crop); for pest or weed control at 35 g/ha / pest or weed control at 70 g/ha: post-emergence, 504 h; for pest or weed control at 35 g/ha: 35 g ai/ha; for pest or weed control at 70 g/ha: 70 g ai/ha
Method in brief: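 Visual injury scores (0 no injury to 100 complete kill) taken 20-22 days after treatment were converted by probit analysis into GR20–GR90 doses. Treatment was an overhead track spray at 187 L/ha onto second-to-third true leaf plants, using acetone/DMSO (final 16.2%/0.5%) with Agri-dex crop oil; solvent blank served as control.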

[2] = tested on: BROTE: downy brome (Bromus tectorum); experiment: Post-emergent Test III, herbicidal activity in wheat and barley; assay type: in vivo; conditions: for pest or weed control at 35 g/ha / pest or weed control at 70 g/ha / pest or weed control at 140 g/ha: Bromus tectorum, post-emergence, 504 h, read-out: Visual Growth Reduction (%) 21 Days After Application BROTE; for pest or weed control at 35 g/ha: 35 g ai/ha; for pest or weed control at 70 g/ha: 70 g ai/ha; for pest or weed control at 140 g/ha: 140 g ai/ha; for GR50 BROTE / GR80 BROTE: probit analysis, 21 days after application; for GR50 BROTE: dose for growth reduction of 50 percent; for GR80 BROTE: dose for growth reduction of 80 percent
Method in brief: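 GR20, GR50, GR80 and GR90 come from probit analysis of visual injury scores (0 = none, 100 = complete kill) taken 21 d after treatment. Foliar application was by track sprayer delivering 187 L/ha at five rates, from high down to 1/16×, onto greenhouse plants at the 2–3 leaf stage, with solvent-blank controls.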

[3] = BRAPP: broadleaf signalgrass, Brachiaria platyphylla
[4] = CYPSS: sedge (Cyperus difformis, esculentus, iria)
[5] = ECHSS: barnyardgrass (Echinochloa crus-galli), junglerice (Echinochloa colonum)
[6] = LEFSS: sprangletop (Leptochloa chinensis, Leptochloa dubia)
[7] = SCPJU: Japanese bulrush, Scirpus juncoides
[8] = SEBEX: hemp sesbania, Sesbania exaltata
[9] = BRAPP: broadleaf signalgrass, Brachiaria platyphylla, read-out: Visual Growth Reduction (%) 21 Days After Application BRAPP
[10] = CYPSS: sedge (Cyperus difformis, esculentus, iria), read-out: Visual Growth Reduction (%) 21 Days After Application CYPSS
[11] = ECHSS: barnyardgrass (Echinochloa crus-galli), junglerice (Echinochloa colonum), read-out: Visual Growth Reduction (%) 21 Days After Application ECHSS
[12] = LEFSS: sprangletop (Leptochloa chinensis, Leptochloa dubia), read-out: Visual Growth Reduction (%) 21 Days After Application LEFSS
[13] = ORYSS: Oryza sativa, read-out: Visual Growth Reduction (%) 21 Days After Application ORYSS
[14] = SCPJU: Japanese bulrush, Scirpus juncoides, read-out: Visual Growth Reduction (%) 21 Days After Application SCPJU
[15] = SEBEX: hemp sesbania, Sesbania exaltata, read-out: Visual Growth Reduction (%) 21 Days After Application SEBEX

SMILES | GR50 BRAPP [1, 3] [g ai/ha] | GR80 BRAPP [1, 3] [g ai/ha] | GR50 CYPSS [1, 4] [g ai/ha] | GR80 CYPSS [1, 4] [g ai/ha] | GR50 ECHSS [1, 5] [g ai/ha] | GR80 ECHSS [1, 5] [g ai/ha] | GR50 LEFSS [1, 6] [g ai/ha] | GR80 LEFSS [1, 6] [g ai/ha] | GR20 ORYSS [1] [g ai/ha] | GR50 SEBEX [1, 8] [g ai/ha] | GR80 SEBEX [1, 8] [g ai/ha] | pest or weed control at 35 g/ha [1, 9] [%] | pest or weed control at 70 g/ha [1, 9] [%] | pest or weed control at 35 g/ha [1, 10] [%] | pest or weed control at 70 g/ha [1, 10] [%] | pest or weed control at 35 g/ha [1, 11] [%] | pest or weed control at 70 g/ha [1, 11] [%] | pest or weed control at 35 g/ha [1, 12] [%] | pest or weed control at 70 g/ha [1, 12] [%] | pest or weed control at 35 g/ha [1, 13] [%] | also measured
COc1c(N)nc(-c2ccc(Br)c(F)c2F)nc1C(=O)O [Compound 8] | 4 | 9 | 1 | 1 | 2 | 6 | >70 | >70 | 2 | 3 | 5 | 95 to 100 | 95 to 100 | 95 to 100 | 95 to 100 | 95 to 100 | 95 to 100 | 0 to 29 | 30 to 44 | 75 to 84 | GR50 SCPJU [1, 7]: 1 g ai/ha; GR80 SCPJU [1, 7]: 1 g ai/ha; pest or weed control at 70 g/ha [1, 13]: 85 to 94%; pest or weed control at 35 g/ha [1, 14]: 95 to 100%; pest or weed control at 70 g/ha [1, 14]: 95 to 100%; pest or weed control at 35 g/ha [1, 15]: 95 to 100%; pest or weed control at 70 g/ha [1, 15]: 95 to 100%
Nc1cc(-c2ccc(Br)c(F)c2F)nc(C(=O)O)c1Cl [Compound 91] |  |  |  |  |  |  |  |  |  |  |  |  |  |  |  |  |  |  |  |  | pest or weed control at 35 g/ha [2]: 45 to 59%; pest or weed control at 70 g/ha [2]: 45 to 59%; pest or weed control at 140 g/ha [2]: 30 to 44%; GR50 BROTE [2]: 29 g ai/ha; GR80 BROTE [2]: >140 g ai/ha
COC(=O)c1nc(-c2ccc(Br)c(F)c2F)nc(N)c1OC [Compound 122, methyl 6-amino-2-(4-bromo-2,3-difluorophenyl)-5-methoxypyrimidine-4-carboxylate] | 5 | 42 | 1 | 1 | 6 | 47 | >70 | >70 | 70 | 1 | 1 | 75 to 84 | 85 to 94 | 95 to 100 | 95 to 100 | 75 to 84 | 85 to 94 | 0 to 29 | 0 to 29 | 0 to 29 | GR50 SCPJU [1, 7]: 1 g ai/ha; GR80 SCPJU [1, 7]: 1 g ai/ha; pest or weed control at 70 g/ha [1, 13]: 0 to 29%; pest or weed control at 35 g/ha [1, 14]: 95 to 100%; pest or weed control at 70 g/ha [1, 14]: 95 to 100%; pest or weed control at 35 g/ha [1, 15]: 95 to 100%; pest or weed control at 70 g/ha [1, 15]: 95 to 100%
Nc1c(F)c(-c2ccc(C(F)(F)F)c(F)c2)nc(C(=O)O)c1Cl [Compound 134] | 3 | 12 | 6 | 13 | 1 | 1 | 6 | 15 | 5 | 1 | 1 | 95 to 100 | 95 to 100 | 95 to 100 | 95 to 100 | 95 to 100 | 95 to 100 | 95 to 100 | 95 to 100 | 60 to 74 | GR50 SCPJU [1, 7]: 1 g ai/ha; GR80 SCPJU [1, 7]: 1 g ai/ha; pest or weed control at 70 g/ha [1, 13]: 85 to 94%; pest or weed control at 70 g/ha [1, 14]: 95 to 100%; pest or weed control at 35 g/ha [1, 15]: 95 to 100%; pest or weed control at 70 g/ha [1, 15]: 95 to 100%
COC(=O)c1nc(-c2ccc(C(F)(F)F)c(F)c2)c(F)c(N)c1Cl [Compound 165] | 12 | 27 | 19 | 67 | 10 | 24 | 24 | 56 | 44 | 1 | 1 | 85 to 94 | 95 to 100 | 75 to 84 | 75 to 84 | 85 to 94 | 95 to 100 | 0 to 29 | 95 to 100 | 0 to 29 | pest or weed control at 70 g/ha [1, 13]: 30 to 44%; pest or weed control at 35 g/ha [1, 15]: 95 to 100%; pest or weed control at 70 g/ha [1, 15]: 95 to 100%
COC(=O)c1nc(-c2ccc(F)c(F)c2F)c(F)c(N)c1Cl [Compound 186] |  |  |  |  |  |  |  |  |  |  |  |  |  |  |  |  |  |  |  |  | pest or weed control at 35 g/ha [2]: 0 to 29%; pest or weed control at 70 g/ha [2]: 0 to 29%; pest or weed control at 140 g/ha [2]: 0 to 29%; GR50 BROTE [2]: >140 g ai/ha; GR80 BROTE [2]: >140 g ai/ha
COC(=O)c1nc(-c2ccc(F)cc2)c(F)c(N)c1Cl [Compound 204] |  |  |  |  |  |  |  |  |  |  |  |  |  |  |  |  |  |  |  |  | pest or weed control at 35 g/ha [2]: 0 to 29%; pest or weed control at 70 g/ha [2]: 0 to 29%; pest or weed control at 140 g/ha [2]: 30 to 44%; GR50 BROTE [2]: >140 g ai/ha; GR80 BROTE [2]: >140 g ai/ha
Nc1c(F)c(-c2ccc(Cl)c(F)c2)nc(C(=O)O)c1Cl [Compound 217] | 3 | 5 | 5 | 11 | 1 | 1 | 1 | 3 | 10 | 1 | 1 | 95 to 100 | 95 to 100 | 95 to 100 | 95 to 100 | 95 to 100 | 95 to 100 | 95 to 100 | 95 to 100 | 45 to 59 | pest or weed control at 35 g/ha [2]: 75 to 84%; pest or weed control at 70 g/ha [2]: 85 to 94%; pest or weed control at 140 g/ha [2]: 85 to 94%; GR50 BROTE [2]: 15 g ai/ha; GR80 BROTE [2]: 33 g ai/ha; GR50 SCPJU [1, 7]: 1 g ai/ha; GR80 SCPJU [1, 7]: 1 g ai/ha; pest or weed control at 70 g/ha [1, 13]: 75 to 84%; pest or weed control at 35 g/ha [1, 14]: 95 to 100%; pest or weed control at 70 g/ha [1, 14]: 95 to 100%; pest or weed control at 35 g/ha [1, 15]: 95 to 100%; pest or weed control at 70 g/ha [1, 15]: 95 to 100%
